Measurements published in US5217877A, “Process for the preparation of α-glucosidase inhibitor, pradimicin Q” (Bristol-Myers Squibb Company, priority 1991, dated 1993).
Values after ≈ are worked out from the molar mass of the structure shown.

What was measured:
[1] = target: T1, α-glucosidase (Sigma G-5003) (Saccharomyces cerevisiae, UniProt P53341); assay: α-Glucosidase inhibitory activity (p-nitrophenyl-α-D-glucopyranoside hydrolysis); format: biochemical; settings: for IC50 / IC50 (α-glucosidase inhibitory activity): 37° C., 15 minutes, pH 6.8, 0.7 mM p-nitrophenyl-α-D-glucopyranoside
T1 construct: purchased Sigma G-5003
T1 sequence (P53341 whole entry): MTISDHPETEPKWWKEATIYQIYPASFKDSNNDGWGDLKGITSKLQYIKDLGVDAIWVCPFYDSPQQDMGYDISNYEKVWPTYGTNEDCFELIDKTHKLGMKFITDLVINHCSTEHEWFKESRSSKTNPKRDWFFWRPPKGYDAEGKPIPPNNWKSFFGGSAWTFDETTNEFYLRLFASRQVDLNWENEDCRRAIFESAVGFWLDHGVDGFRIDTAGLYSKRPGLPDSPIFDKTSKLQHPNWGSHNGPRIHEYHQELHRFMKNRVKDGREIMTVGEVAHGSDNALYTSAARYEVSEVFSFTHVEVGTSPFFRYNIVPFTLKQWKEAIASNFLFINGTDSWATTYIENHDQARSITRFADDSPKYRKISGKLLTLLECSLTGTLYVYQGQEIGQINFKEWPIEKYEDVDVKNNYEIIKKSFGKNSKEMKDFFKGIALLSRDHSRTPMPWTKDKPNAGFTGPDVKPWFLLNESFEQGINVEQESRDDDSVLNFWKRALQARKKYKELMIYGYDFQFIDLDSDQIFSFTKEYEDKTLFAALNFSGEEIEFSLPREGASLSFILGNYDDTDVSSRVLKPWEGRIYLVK
Method: Forty μl of α-glucosidase (Sigma G-5003, #11 U/mg protein) (0.1 mg/ml in 100 mM phosphate buffer, pH 6.8=[…]) for tests (or the buffer for the control), 950 μl of 0.7 mM p-nitrophenyl-α-D-glucopyranoside (Sigma N1377), and 10 μl of the assay compound (various concentrations dissolved in DMSO) were mixed and incubated at 37° C. for 15 minutes. To the reaction mixture, 1.0 ml of 0.2N NaOH and then 1.0 ml of n-butanol were added and voltex-mixed. […] IC50 was determined from a standard curve of p-nitrophenol released when the assay was run without the test compound (0% inhibition) and when the assay was run without the enzyme (100% inhibition).

mouse melanoma B16 cells = assay: cells; settings: B16, read-out: cytotoxic activity IC50

SMILES | IC50 [1] | α-glucosidase inhibitory activity (in words) [1] | IC50 (α-glucosidase inhibitory activity) [1] | IC50 (mouse melanoma B16 cells)
COc1cc(O)c2c(c1)C(=O)c1c(O)c3c(c(OC)c1C2=O)C(O)C(O)c1cc(C)c(C(=O)NC(C)C(=O)O)c(O)c1-3 (stereo not drawn) [Benanomicin C, benanomicin C] | 107 µM | – | – | –
CN[C@@H]1[C@H](O[C@@H]2O[C@H](CO)[C@H](O)[C@H](O)[C@@H]2O)[C@@H](O)[C@H](O[C@@H]2c3cc(C)c(C(=O)N[C@H](C)C(=O)O)c(O)c3-c3c(cc4c(c3O)C(=O)c3cc(OC)cc(O)c3C4=O)[C@@H]2O)O[C@H]1C [Pradimicin L] | – | no α-glucosidase inhibitory activity | > 100 µg/mL | –
COc1cc(O)c2c(c1)C(=O)c1c(cc3c(c1O)-c1c(cc(C)c(C(=O)N[C@H](CO)C(=O)O)c1O)[C@H](O[C@@H]1O[C@H](C)[C@H](N(C)C)[C@H](O[C@@H]4OC[C@@H](O)[C@H](O)[C@H]4O)[C@H]1O)[C@H]3O)C2=O [N,N-dimethylpradimicin FA-2] | – | no α-glucosidase inhibitory activity | > 100 µg/mL | –
Cc1cc2c(c(O)c1C(=O)O)-c1c(O)c3c(c(O)c1CC2O)C(=O)c1c(O)cc(O)cc1C3=O (stereo not drawn) [Pradimicin Q, pradimicin Q] | 6.46 µM | – | – | 75 µg/mL (≈ 162 µM)
CNC1C(C)OC(OC2c3cc(C)c(C(=O)NC(C)C(=O)O)c(O)c3-c3c(cc4c(c3O)C(=O)c3cc(OC)cc(O)c3C4=O)C2O)C(O)C1OC1OCC(O)C(O)C1O (stereo not drawn) [Pradimicin A] | > 119 µM | no α-glucosidase inhibitory activity | – | –
